Results published in US8513251B2, “Pyridazinone compounds” (Takeda Pharmaceutical Company Limited, priority 2009, dated 2013).

System: Male ICR mice
Experiment: Improvement of MK-801-induced prepulse inhibition (PPI) deficits
Type: in vivo
Details: 82 dB prepulse; i.p. 30 min before testing; MK-801 0.3 mg/kg s.c. (FIG. 3)
Excerpt: Male ICR mice were supplied by CLEA Japan, Inc (Japan). After arrival to the vivarium, animals were allowed a minimum of 1 week for acclimation. They were housed under a 12:12-h light/dark cycle in a temperature- and humidity-controlled laboratory and allowed food and water ad libitum. The care and use of the animals and the experimental protocols used in this research were approved by the Experimental Animal Care and Use Committee of Takeda Pharmaceutical Company, Ltd (Osaka, Japan).
The compounds were suspended in 0.5% methylcellulose in saline or distilled water, and administered by intraperitoneally (i.p.) or orally (p.o.), respectively. Methamphetamine (Dainippon Sumitomo Pharma Co., Ltd.) and MK-801 (Sigma-Aldrich, St Louis, Mo.) were dissolved in saline, and administered subcutaneously (s.c.). […]
PPI is a measure of sensorimotor gating and is one of a few neuropsychological measures in which humans and rodents can be evaluated in a similar fashion (Psychopharmacology (Berl) 2001, vol. 156: 117-154). We evaluated whether compound could reverse PPI deficits induced by MK-801 using male ICR mice. […] Placement of mice inside the cylinders allowed the whole-body startle responses induced by the acoustic stimuli to be measured via the transduction of movement into analog signals by a piezoelectric unit attached to the platform. […]

## Cc1nc2n(c(=O)c1CCN1CCC(c3noc4cc(F)ccc34)CC1)CCCC2 [Risperidone]
  MK-801-induced PPI deficits: significantly reversed
